Experimental data as given in ChEMBL document CHEMBL1201862, “PubChem BioAssay data set” (2004).
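Grown in 96-well plates, cells were treated for 48 hours with each compound at five concentrations. Insufficient inhibition: endpoint recorded as highest concentration tested. GI50 is the concentration that inhibits growth by half.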 Activity calls are given as the source filed them. No stated cut-off is given here; in the data, active = GI50 up to about 1.1 µM and inactive = higher.

Columns and labels:
Experiment in all cases: NCI tumour cell line growth inhibition, 48 h
MOLT-4 = system: MOLT-4
MCF7 = system: MCF7
EKVX = system: EKVX
HCT-116 = system: HCT-116
OVCAR-3 = system: OVCAR-3
CCRF-CEM = system: CCRF-CEM
SF-539 = system: SF-539
DU-145 = system: DU-145
ACHN = system: ACHN
SR = system: SR
NCI-H23 = system: NCI-H23
SNB-75 = system: SNB-75
NCI/ADR-RES = system: NCI/ADR-RES
COLO 205 = system: COLO 205
T47D = system: T47D
U-251 = system: U-251
SNB-19 = system: SNB-19
HL-60 = system: HL-60
UO-31 = system: UO-31

SMILES	GI50 (MOLT-4)	GI50 (MCF7)	GI50 (EKVX)	GI50 (HCT-116)	GI50 (OVCAR-3)	GI50 (CCRF-CEM)	GI50 (SF-539)	GI50 (DU-145)	GI50 (ACHN)	GI50 (SR)	GI50 (NCI-H23)	GI50 (SNB-75)	GI50 (NCI/ADR-RES)	GI50 (COLO 205)	GI50 (T47D)	GI50 (U-251)	GI50 (SNB-19)	GI50 (HL-60)	GI50 (UO-31)
Cc1c2cnccc2c(C)c2c1[nH]c1ccc(O)cc12	0.498 µM (active)	0.914 µM (active)	2.88 µM (inactive)	0.796 µM (active)	1.13 µM (inactive)	0.74 µM (active)	1.07 µM (active)	1.64 µM (inactive)	1.32 µM (inactive)	0.31 µM (active)	1.57 µM (inactive)	1.87 µM (inactive)	0.693 µM (active)	2.68 µM (inactive)	5.92 µM (inactive)	2.02 µM (inactive)	3.21 µM (inactive)	1.05 µM (active)	–
C/C=C(\C)[C@@H](O)C(=O)O[C@@H]1CC(C(C)(C)O)[C@](C)(CCC(=O)OC)[C@H]2[C@H](OC(=O)[C@H](O)[C@H](C)CC)C[C@]3(C)C(=CC[C@H]3[C@H]3CO[C@H](C=C(C)C)C3)[C@]12C (some centres not stated)	19.7 µM (inactive)	19.3 µM (inactive)	15.3 µM (inactive)	18 µM (inactive)	20.1 µM (inactive)	–	20.5 µM (inactive)	29 µM (inactive)	18.1 µM (inactive)	14.5 µM (inactive)	18.4 µM (inactive)	15.4 µM (inactive)	16.4 µM (inactive)	–	25.7 µM (inactive)	18.8 µM (inactive)	–	16.7 µM (inactive)	17.7 µM (inactive)
O=C1CSC2(CC(/C=C/c3ccccc3)=NN2c2cccc(S(=O)(=O)O)c2)N1c1nc2ccccc2s1 (configuration not stated)	24.9 µM (inactive)	17.1 µM (inactive)	60.4 µM (inactive)	36.8 µM (inactive)	–	19.1 µM (inactive)	39.7 µM (inactive)	25.4 µM (inactive)	27 µM (inactive)	21.8 µM (inactive)	22 µM (inactive)	26.7 µM (inactive)	34.1 µM (inactive)	> 100 µM (inactive)	17.1 µM (inactive)	20.6 µM (inactive)	21.5 µM (inactive)	27 µM (inactive)	18.5 µM (inactive)
O=C1c2ccccc2-c2nc(/C=C/c3ccccc3)cc3c2c1nc1ccccc13	23.6 µM (inactive)	19.1 µM (inactive)	53.8 µM (inactive)	17.4 µM (inactive)	0.265 µM (active)	24.4 µM (inactive)	27.4 µM (inactive)	68.4 µM (inactive)	26.4 µM (inactive)	1.8 µM (inactive)	12.1 µM (inactive)	17.8 µM (inactive)	33.8 µM (inactive)	20.5 µM (inactive)	48.8 µM (inactive)	17.7 µM (inactive)	80.5 µM (inactive)	–	29.6 µM (inactive)
OC[C@H]1CCCC1O (some centres not stated)	> 100 µM (inactive)	> 100 µM (inactive)	–	> 100 µM (inactive)	> 100 µM (inactive)	> 100 µM (inactive)	> 100 µM (inactive)	> 100 µM (inactive)	> 100 µM (inactive)	> 100 µM (inactive)	> 100 µM (inactive)	73.1 µM (inactive)	> 100 µM (inactive)	> 100 µM (inactive)	> 100 µM (inactive)	> 100 µM (inactive)	> 100 µM (inactive)	> 100 µM (inactive)	> 100 µM (inactive)
O=NN1CCNC1Cc1ccccc1 (configuration not stated)	27 µM (inactive)	37.2 µM (inactive)	> 100 µM (inactive)	71.6 µM (inactive)	> 100 µM (inactive)	31.8 µM (inactive)	48.9 µM (inactive)	50.9 µM (inactive)	37.6 µM (inactive)	23.8 µM (inactive)	72.1 µM (inactive)	18.3 µM (inactive)	> 100 µM (inactive)	> 100 µM (inactive)	47.1 µM (inactive)	33.3 µM (inactive)	35.3 µM (inactive)	37.6 µM (inactive)	43.7 µM (inactive)
COc1ccc2oc(S(=O)(=O)N3CC(CCl)c4ccc(N)cc43)cc2c1 (configuration not stated)	0.0652 µM (active)	0.0253 µM (active)	0.084 µM (active)	0.0419 µM (active)	0.0395 µM (active)	0.0385 µM (active)	0.0244 µM (active)	0.0767 µM (active)	0.12 µM (active)	< 0.01 µM (active)	0.401 µM (active)	< 0.0215 µM (active)	0.0377 µM (active)	2.11 µM (inactive)	> 100 µM (inactive)	0.0429 µM (active)	0.0608 µM (active)	0.022 µM (active)	1.93 µM (inactive)
O=C1/C(=C/c2ccc(Cl)cc2)CCC/C1=C\c1ccc(O)c(CN2CCCCC2)c1	24 µM (inactive)	47.1 µM (inactive)	18.1 µM (inactive)	8.57 µM (inactive)	24.1 µM (inactive)	6.01 µM (inactive)	21.8 µM (inactive)	17.1 µM (inactive)	15.7 µM (inactive)	3.78 µM (inactive)	19.1 µM (inactive)	19.1 µM (inactive)	12.9 µM (inactive)	20.3 µM (inactive)	19.5 µM (inactive)	16.6 µM (inactive)	33 µM (inactive)	2.13 µM (inactive)	16.3 µM (inactive)
COc1cccc(NC(=O)CC(=O)N2N=C(C)C(/N=N/c3ccc(C(=O)O)cc3)C2=O)c1 (configuration not stated)	–	> 100 µM (inactive)	25.4 µM (inactive)	> 100 µM (inactive)	> 100 µM (inactive)	> 100 µM (inactive)	> 100 µM (inactive)	> 100 µM (inactive)	> 100 µM (inactive)	> 100 µM (inactive)	> 100 µM (inactive)	16.6 µM (inactive)	> 100 µM (inactive)	> 100 µM (inactive)	> 100 µM (inactive)	–	> 100 µM (inactive)	> 100 µM (inactive)	> 100 µM (inactive)
Cc1c2c(c(C)c3c4c(oc13)CCCC4)C=NCC2	7.89 µM (inactive)	16.1 µM (inactive)	12.7 µM (inactive)	14.9 µM (inactive)	14.9 µM (inactive)	12.1 µM (inactive)	15.2 µM (inactive)	15 µM (inactive)	15.8 µM (inactive)	6.58 µM (inactive)	16.2 µM (inactive)	15.8 µM (inactive)	15.4 µM (inactive)	19.5 µM (inactive)	35.6 µM (inactive)	13.1 µM (inactive)	22.8 µM (inactive)	19.7 µM (inactive)	13.1 µM (inactive)
c1ccc(C(c2cccc3c2ccc2ccccc23)C(c2ccccc2)c2cccc3c2ccc2ccccc23)cc1 (configuration not stated)	> 100 µM (inactive)	> 100 µM (inactive)	> 100 µM (inactive)	> 100 µM (inactive)	> 100 µM (inactive)	> 100 µM (inactive)	> 100 µM (inactive)	> 100 µM (inactive)	> 100 µM (inactive)	> 100 µM (inactive)	> 100 µM (inactive)	> 100 µM (inactive)	> 100 µM (inactive)	> 100 µM (inactive)	> 100 µM (inactive)	> 100 µM (inactive)	> 100 µM (inactive)	65.8 µM (inactive)	> 100 µM (inactive)
O=C1Oc2ccccc2N/C1=C/C(=O)c1ccc(Cl)cc1	> 100 µM (inactive)	41.7 µM (inactive)	> 100 µM (inactive)	62.5 µM (inactive)	37.9 µM (inactive)	7.96 µM (inactive)	46.9 µM (inactive)	> 100 µM (inactive)	> 100 µM (inactive)	39.4 µM (inactive)	> 100 µM (inactive)	> 100 µM (inactive)	39 µM (inactive)	> 100 µM (inactive)	47.5 µM (inactive)	> 100 µM (inactive)	> 100 µM (inactive)	–	73.5 µM (inactive)
CNC(=O)Oc1ccc(-c2cn3cc(OC(=O)NC)ccc3n2)cc1	20.5 µM (inactive)	32.4 µM (inactive)	96.4 µM (inactive)	33.1 µM (inactive)	67.8 µM (inactive)	17.9 µM (inactive)	27.6 µM (inactive)	68.9 µM (inactive)	29 µM (inactive)	21 µM (inactive)	87.3 µM (inactive)	62.4 µM (inactive)	79.1 µM (inactive)	41.4 µM (inactive)	31.3 µM (inactive)	36.9 µM (inactive)	43.3 µM (inactive)	–	26.5 µM (inactive)
CC(=O)NC1c2ccccc2C(C)(C)C12CCC1(CC2)OCCO1 (configuration not stated)	> 100 µM (inactive)	> 100 µM (inactive)	> 100 µM (inactive)	> 100 µM (inactive)	–	> 100 µM (inactive)	> 100 µM (inactive)	> 100 µM (inactive)	> 100 µM (inactive)	> 100 µM (inactive)	> 100 µM (inactive)	> 100 µM (inactive)	> 100 µM (inactive)	> 100 µM (inactive)	> 100 µM (inactive)	> 100 µM (inactive)	> 100 µM (inactive)	> 100 µM (inactive)	> 100 µM (inactive)
C[Si](C)(C)C#CCOC=C1CC1	> 100 µM (inactive)	> 100 µM (inactive)	> 100 µM (inactive)	> 100 µM (inactive)	–	34.4 µM (inactive)	> 100 µM (inactive)	> 100 µM (inactive)	> 100 µM (inactive)	52.5 µM (inactive)	> 100 µM (inactive)	> 100 µM (inactive)	> 100 µM (inactive)	> 100 µM (inactive)	> 100 µM (inactive)	> 100 µM (inactive)	> 100 µM (inactive)	35.2 µM (inactive)	> 100 µM (inactive)
